{
  "source": "patent US20020120098A1",
  "about": "“Enhanced stimulation of erythropoiesis” (priority 1996, published 2002)",
  "key": {"erythroid colonies": {"system": "erythroid colonies", "assay": "Hemoglobin production by erythroid colonies, anion exchange HPLC", "format": "cell-based, human", "conditions": "5% O2, 2 U/ml Epo; for adult Hb / fetal Hb / total Hb: 100 μM hemin, 1.0 mg/ml HAo or HEMOLINK, 250 μM FeCl3; for adult Hb per cell / fetal Hb per cell / total Hb per cell: estimated assuming 30,000 cells/BFU-E and 100 cells/CFU-E", "description": "Hemoglobin synthesis in erythroid colonies was analyzed by anion exchange high performance liquid chromatography (HPLC). Colonies were harvested from CFA plates and cell lysates were prepared after the progenitor colonies had been enumerated. Colonies were isolated from methyl cellulose by several washes in PBS. The cells were pelleted and lysed in 50 mM Tris, pH 8.8 and the cell debris removed by pelleting the cell lysate. The lysate supernatants were filtered through a 0.2 ,μm filter prior to loading onto a POROS® HQ/H anion exchange HPLC column (PerSeptive Biosystems). The hemoglobin was eluted with an increasing NaCl gradient and the optical density (O.D.) monitored at a wavelength of 414 nm The amount of hemoglobin present in the lysates was quantitated by comparison with standard hemoglobin solutions of adult (HbA) and fetal hemoglobin (HbF).\nRepresentative HPLC profiles for hemoglobin produced by erythroid colonies that formed at 5% O2 in the presence of 2 U/ml Epo with no addition (vehicle only), 100 μM hemin, 1.0 mg/ml HAo (15.6 μM) HAo, 1.0 mg/ml HEMOLINK™ (15.6 μM), or 250 μM FeCl3 are shown in FIG. 7."}, "BFU-E": {"system": "BFU-E", "assay": "Colony formation assay, adult peripheral blood LDMNC: BFU-E", "format": "cell-based, human", "conditions": "for fold increase in BFU-E, adult blood, 0.2 U/ml Epo: ~20% O2, compared to untreated controls (no addition) at 0.2 U/ml Epo", "description": "Blood was collected with informed consent from the antecubital vein of healthy adult human volunteers into vacutainers containing 143 USP U/ml sodium heparin. Low density mononuclear cells (LDMNC) were isolated by centrifugation over a density gradient as described in Example 1. Plastic adherent cells were removed by an overnight incubation in a tissue culture flask and the non-adherent cells were placed directly in a CFA. Conditions for the CFA are similar to those described in Examples 1-4.\nThe mean fold increase in adult blood BFU-E, CFU-E and CFU-GM progenitor number produced by 1.0 mg/ml HAo (15.6 μM) or HEMOLINK™ (15.6 μM), 100 μM hemin or 250 μM FeCl3 is shown in FIG. 9 (n=3). Cultures were maintained at ambient oxygen tensions (˜20% O2) for 14 days. The fold increase in colonies is expressed relative to control cells treated only with the respective vehicles. […] The magnitude of this increase was greater for adult than cord blood LDMNC.\nThe mean fold increase in adult blood BFU-E, CFU-E and CFU-GM progenitor number at 5% O2 is shown in FIG. 10 with the same additives. Results are expressed relative to control cells treated only with the respective vehicles and cultured at ambient oxygen tensions (˜20% O2). Reduced oxygen tensions (5% O)2 enhanced the growth of BFU-E which was further increased by the addition of HAo, HEMOLINK™, hemin or FeCl3. All agents stimulated a similar increase in BFU-E number (˜9-11-fold) at 5% O2 compared to untreated control cells at ambient oxygen tensions.\nMean fold increase in adult blood BFU-E, CFU-E and CFU-GM progenitor number in the presence of reduced Epo (0.2 U/ml) (n=3) at 20% O2 is shown in FIG. 11 with and without (no addition) the additives used in FIG. 9. Results are expressed relative to control cells at 2 U/ml Epo treated only with the respective vehicles (solid line at fold expansion=1.0). […] As with cord blood, CFU-GM numbers were unaffected by reductions in Epo. The addition of HAo or HEMOLINK™ to CFAs containing 0.2 U/ml Epo stimulated ˜4.5- and ˜3.5-fold increases in BFU-E and CFU-E, respectively, compared to untreated controls (no addition), restoring the progenitor number to that obtained at 2 U/ml Epo. Hemin stimulated the greatest increase in BFU-E and CFU-E (˜9- and ˜6-fold, respectively) at 0.2 U/ml Epo versus the untreated controls (no addition). FeCl3 stimulated only a ˜2-fold increase in erythroid progenitor number at 0.2 U/ml Epo.\nMean fold increase in adult blood BFU-E, CFU-E and CFU-GM progenitor number at 5% O2 in the presence of reduced Epo (0.2 U/ml) (n=3) is shown in FIG. 12 with and without the additives used in FIG. 9. […]"}},
  "data": [
    {"molecule": "C=CC1=C(C)C2=Cc3c(C=C)c(C)c4[n]3[Fe-2]35([Cl])[n]6c(c(C)c(CCC(=O)O)c6=CC6=[N+]3C(=C4)C(C)=C6CCC(=O)O)=CC1=[N+]25", "note": "[hemin]", "values": [
      {"measurement": "adult Hb", "setting": "erythroid colonies", "result": 8.7, "unit": "µg"},
      {"measurement": "fetal Hb", "setting": "erythroid colonies", "result": 19.4, "unit": "µg"},
      {"measurement": "total Hb", "setting": "erythroid colonies", "result": 28.1, "unit": "µg"},
      {"measurement": "adult Hb per cell", "setting": "erythroid colonies", "result": 0.14, "unit": "pg/cell"},
      {"measurement": "fetal Hb per cell", "setting": "erythroid colonies", "result": 0.32, "unit": "pg/cell"},
      {"measurement": "total Hb per cell", "setting": "erythroid colonies", "result": 0.46, "unit": "pg/cell"},
      {"measurement": "fold increase in BFU-E, adult blood, 0.2 U/ml Epo", "setting": "BFU-E", "result": "~9", "unit": "fold"}
    ]},
    {"molecule": "[Cl][Fe]([Cl])[Cl]", "note": "[FeCl3]", "values": [
      {"measurement": "adult Hb", "setting": "erythroid colonies", "result": 5.0, "unit": "µg"},
      {"measurement": "fetal Hb", "setting": "erythroid colonies", "result": 9.5, "unit": "µg"},
      {"measurement": "total Hb", "setting": "erythroid colonies", "result": 14.5, "unit": "µg"},
      {"measurement": "adult Hb per cell", "setting": "erythroid colonies", "result": 0.14, "unit": "pg/cell"},
      {"measurement": "fetal Hb per cell", "setting": "erythroid colonies", "result": 0.26, "unit": "pg/cell"},
      {"measurement": "total Hb per cell", "setting": "erythroid colonies", "result": 0.40, "unit": "pg/cell"},
      {"measurement": "fold increase in BFU-E, adult blood, ambient O2", "setting": "BFU-E; 2 U/ml Epo, ambient O2, 1.0 mg/ml HAo or HEMOLINK, 100 μM hemin, 250 μM FeCl3, vs vehicle controls", "result": "< 3", "unit": "fold"}
    ]},
    {"molecule": "HEMOLINK™: chemically crosslinked hemoglobin prepared by treating human hemoglobin with a polyaldehyde (O-raffinose)", "values": [
      {"measurement": "adult Hb", "setting": "erythroid colonies", "result": 20.5, "unit": "µg"},
      {"measurement": "fetal Hb", "setting": "erythroid colonies", "result": 28.0, "unit": "µg"},
      {"measurement": "total Hb", "setting": "erythroid colonies", "result": 48.5, "unit": "µg"},
      {"measurement": "adult Hb per cell", "setting": "erythroid colonies", "result": 0.38, "unit": "pg/cell"},
      {"measurement": "fetal Hb per cell", "setting": "erythroid colonies", "result": 0.51, "unit": "pg/cell"},
      {"measurement": "total Hb per cell", "setting": "erythroid colonies", "result": 0.89, "unit": "pg/cell"},
      {"measurement": "fold increase in BFU-E, adult blood, 0.2 U/ml Epo", "setting": "BFU-E", "result": "~4.5", "unit": "fold"}
    ]},
    {"molecule": "HAo: adult human hemoglobin obtained from red blood cells and purified by displacement chromatography; uncross linked product", "values": [
      {"measurement": "adult Hb", "setting": "erythroid colonies", "result": 22.6, "unit": "µg"},
      {"measurement": "fetal Hb", "setting": "erythroid colonies", "result": 33.1, "unit": "µg"},
      {"measurement": "total Hb", "setting": "erythroid colonies", "result": 55.7, "unit": "µg"},
      {"measurement": "adult Hb per cell", "setting": "erythroid colonies", "result": 0.37, "unit": "pg/cell"},
      {"measurement": "fetal Hb per cell", "setting": "erythroid colonies", "result": 0.54, "unit": "pg/cell"},
      {"measurement": "total Hb per cell", "setting": "erythroid colonies", "result": 0.91, "unit": "pg/cell"},
      {"measurement": "fold increase in BFU-E, adult blood, 0.2 U/ml Epo", "setting": "BFU-E", "result": "~4.5", "unit": "fold"}
    ]}
  ]
}
